Source: the NIST ThermoML archive (doi:10.1021/je4003515)
± gives the expanded uncertainty stated by the source.

Key:
[1] = refractive index (Na D-line) (dimensionless); mn = molality of the nth substance listed, in mol/kg; settings: 298.15 K, 101 kPa, Liquid, Standard Abbe refractometry
[2] = mn = molality of the nth substance listed, in mol/kg; settings: 101 kPa, Liquid; for viscosity: Capillary tube (Ostwald / Ubbelohde) method; for mass density: Vibrating tube method

CCO [ethanol] + O
[1]
Settings | refractive index
m1 = 14 | 1.355 ± 0.0007
m1 = 16 | 1.3564 ± 0.0007
m1 = 18 | 1.3575 ± 0.0007
m1 = 20 | 1.3583 ± 0.0007
m1 = 22 | 1.3585 ± 0.0007

[2]
Settings | mass density, 293.15 K [kg/m3] | mass density, 298.15 K [kg/m3] | mass density, 303.15 K [kg/m3] | mass density, 308.15 K [kg/m3] | mass density, 313.15 K [kg/m3] | viscosity, 293.15 K [mPa·s] | viscosity, 298.15 K [mPa·s] | viscosity, 303.15 K [mPa·s] | viscosity, 308.15 K [mPa·s] | viscosity, 313.15 K [mPa·s]
m1 = 14 | 936.706 ± 1 | 933.024 ± 1 | 929.265 ± 1 | 925.437 ± 1 | 921.529 ± 1 | 2.895 ± 0.02 | 2.35 ± 0.017 | 1.97 ± 0.014 | 1.673 ± 0.013 | 1.44 ± 0.011
m1 = 16 | 930.583 ± 1 | 926.799 ± 1 | 922.942 ± 1 | 919.015 ± 1 | 915.018 ± 1 | 2.9 ± 0.02 | 2.363 ± 0.017 | 1.988 ± 0.015 | 1.69 ± 0.013 | 1.456 ± 0.012
m1 = 18 | 924.182 ± 1 | 920.298 ± 1 | 916.351 ± 1 | 912.337 ± 1 | 908.255 ± 1 | 2.889 ± 0.02 | 2.365 ± 0.017 | 1.99 ± 0.015 | 1.695 ± 0.013 | 1.462 ± 0.012
m1 = 20 | 918.792 ± 1 | 914.849 ± 1 | 910.842 ± 1 | 906.77 ± 1 | – | 2.878 ± 0.02 | 2.371 ± 0.017 | 1.999 ± 0.015 | 1.704 ± 0.013 | 1.475 ± 0.012
m1 = 22 | 913.462 ± 1 | 909.466 ± 1 | 905.406 ± 1 | 901.281 ± 1 | – | 2.862 ± 0.02 | 2.352 ± 0.017 | 1.989 ± 0.015 | 1.7 ± 0.013 | 1.469 ± 0.012

CCCO [propan-1-ol] + O
[1]
Settings | refractive index
m1 = 14 | 1.364 ± 0.0007
m1 = 16 | 1.3654 ± 0.0007
m1 = 18 | 1.367 ± 0.0007
m1 = 20 | 1.368 ± 0.0007
m1 = 22 | 1.3695 ± 0.0007

[2]
Settings | mass density, 293.15 K [kg/m3] | mass density, 298.15 K [kg/m3] | mass density, 303.15 K [kg/m3] | mass density, 308.15 K [kg/m3] | mass density, 313.15 K [kg/m3] | viscosity, 293.15 K [mPa·s] | viscosity, 298.15 K [mPa·s] | viscosity, 303.15 K [mPa·s] | viscosity, 308.15 K [mPa·s] | viscosity, 313.15 K [mPa·s]
m1 = 14 | 918.103 ± 1 | 914.486 ± 1 | 910.811 ± 1 | 907.075 ± 1 | 903.277 ± 1 | 3.11 ± 0.022 | 2.599 ± 0.019 | 2.193 ± 0.016 | 1.88 ± 0.014 | 1.626 ± 0.013
m1 = 16 | 911.211 ± 1 | 907.532 ± 1 | 903.797 ± 1 | 899.995 ± 1 | 896.13 ± 1 | 3.151 ± 0.022 | 2.637 ± 0.019 | 2.23 ± 0.016 | 1.906 ± 0.014 | 1.648 ± 0.013
m1 = 18 | 905.417 ± 1 | 901.687 ± 1 | 897.899 ± 1 | 894.048 ± 1 | 890.133 ± 1 | 3.176 ± 0.023 | 2.663 ± 0.019 | 2.255 ± 0.016 | 1.93 ± 0.015 | 1.67 ± 0.013
m1 = 20 | 899.512 ± 1 | 895.724 ± 1 | 891.885 ± 1 | 887.984 ± 1 | 884.02 ± 1 | 3.178 ± 0.023 | 2.671 ± 0.019 | 2.263 ± 0.017 | 1.938 ± 0.015 | 1.679 ± 0.013
m1 = 22 | 895.376 ± 1 | 891.557 ± 1 | 887.682 ± 1 | 883.751 ± 1 | 879.756 ± 1 | – | – | – | – | –
